Where two headings read alike, the source gives them in different places.
Experiments:
Assay type in all cases: cell-based
rASCT2 = biological target: T1, rASCT2 (Rattus norvegicus, UniProt D3ZJ25); assay: Electrophysiology (whole-cell current recording) of transfected HEK293 cells, rASCT2
T1 construct: expressed in transfected cells; host or cells: HEK293 (ATCC CRL-11268), transient transfection
T1 sequence (D3ZJ25 1-555): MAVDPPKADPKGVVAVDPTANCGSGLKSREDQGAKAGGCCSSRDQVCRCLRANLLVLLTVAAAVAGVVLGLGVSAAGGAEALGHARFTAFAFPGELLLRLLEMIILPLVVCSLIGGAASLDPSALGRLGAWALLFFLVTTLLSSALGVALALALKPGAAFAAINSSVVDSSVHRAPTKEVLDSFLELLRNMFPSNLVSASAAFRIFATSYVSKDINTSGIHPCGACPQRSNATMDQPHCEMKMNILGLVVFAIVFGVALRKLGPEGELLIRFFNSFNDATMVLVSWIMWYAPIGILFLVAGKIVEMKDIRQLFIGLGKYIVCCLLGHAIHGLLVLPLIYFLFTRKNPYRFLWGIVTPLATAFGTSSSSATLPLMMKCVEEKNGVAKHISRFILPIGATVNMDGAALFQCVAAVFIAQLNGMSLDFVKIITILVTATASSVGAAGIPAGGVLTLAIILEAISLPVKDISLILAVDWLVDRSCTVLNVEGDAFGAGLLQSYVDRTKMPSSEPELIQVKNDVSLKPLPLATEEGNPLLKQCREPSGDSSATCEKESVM
Method: (§1) Human embryonic kidney 293 (HEK293, ATCC CRL-11268) cells were cultured in DMEM media supplemented with 10% (v v) fetal bovine serum (FBS), 2 mM glutamine, 1% penicillin streptomycin solution, 1 mM sodium pyruvate and non-essential amino acids. Cells were maintained at 37° C. in a fully humidified atmosphere containing 5% CO2. rASCT2, hASCT2, hASCT1, EAAT1, EAAT2, EAAC1, EAAT5 and YFP complementary DNAs were each used to transiently transfect HEK293 using POLYPLUS Jet-prime transfection reagent. Cells were analyzed using electrophysiological techniques 24-40 hours after transfection.
(§2) Stock solutions of inhibitor was prepared in dimethyl sulfoxide (DMSO) up to 100 mM. Dilutions to working concentrations were made using external buffer. […] For rASCT2, hASCT2 and hASCT1, external buffer contained 140 mM NaCl, 2 mM MgCl2, 2 mM CaCl2), and 10 mM HEPES, pH 7.40 while internal pipette solution comprised of 130 mM NaSCN, 2 mM MgCl2, 10 mM EGTA, 10 mM HEPES and 10 mM alanine, pH 7.40. For specificity experiments with EAAT1, EAAT2, EAAC1 and EAAT5, internal solution contained 10 mM glutamate instead of alanine. Compounds were applied to HEK293 cells expressing DNA of interest suspended from a current recording electrode in whole cell configuration through a rapid solution exchange device. Cells are immersed in external buffer bath used to dissolve the inhibitors. The open pipette resistance was between 3 and 6 MΩ. Series resistance was not compensated in these experiments due to relatively small currents. Currents traces were recorded using an Adams and List EPC7 amplifier and digitized using a Molecular Devices Digidata A/D converter.
(§3) Linear and nonlinear curve fitting of the experimental data were analyzed using MicroCal Origin software. Nonlinear dose-response relationships were fitted with a Michaelis-Menten-like equation to obtain apparent Ki values in the absence of substrate (see TABLE 2 for Ki values). The figures show representative current traces and dose-response curves for hACST2 and rASCT2, used to obtain Ki values in TABLE 2 for compound SN 40. At least four experiments were performed with at least three different cells. Error bars in all graphs, e.g., in FIG. 1B and FIG. 1C and tables (Ki values) represent mean±SD.

hASCT1 = biological target: T2, hASCT1 (Homo sapiens, UniProt P43007); assay: Electrophysiology (whole-cell current recording) of transfected HEK293 cells, hASCT1
T2 construct: expressed in transfected cells; host or cells: HEK293 (ATCC CRL-11268), transient transfection
T2 sequence (P43007 1-532): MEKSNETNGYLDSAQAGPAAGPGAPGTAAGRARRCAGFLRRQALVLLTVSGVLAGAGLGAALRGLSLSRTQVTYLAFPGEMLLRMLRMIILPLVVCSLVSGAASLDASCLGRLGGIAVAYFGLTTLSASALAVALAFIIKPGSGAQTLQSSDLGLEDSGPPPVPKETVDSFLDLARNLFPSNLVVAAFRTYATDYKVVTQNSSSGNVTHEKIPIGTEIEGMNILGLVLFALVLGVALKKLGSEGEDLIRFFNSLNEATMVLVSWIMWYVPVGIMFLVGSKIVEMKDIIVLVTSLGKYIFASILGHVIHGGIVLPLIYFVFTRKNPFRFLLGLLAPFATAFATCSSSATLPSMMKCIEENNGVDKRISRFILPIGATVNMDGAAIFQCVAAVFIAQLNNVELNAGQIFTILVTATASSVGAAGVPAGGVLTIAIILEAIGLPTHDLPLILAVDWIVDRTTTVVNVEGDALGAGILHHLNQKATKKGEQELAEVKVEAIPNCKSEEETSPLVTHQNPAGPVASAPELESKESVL
Method: as §1, §2, §3

hASCT2 [1] = biological target: T3, hASCT2 (Homo sapiens, UniProt Q15758); assay: Electrophysiology (whole-cell current recording) of transfected HEK293 cells, hASCT2
T3 construct: expressed in transfected cells; host or cells: HEK293 (ATCC CRL-11268), transient transfection
T3 sequence (Q15758 1-541): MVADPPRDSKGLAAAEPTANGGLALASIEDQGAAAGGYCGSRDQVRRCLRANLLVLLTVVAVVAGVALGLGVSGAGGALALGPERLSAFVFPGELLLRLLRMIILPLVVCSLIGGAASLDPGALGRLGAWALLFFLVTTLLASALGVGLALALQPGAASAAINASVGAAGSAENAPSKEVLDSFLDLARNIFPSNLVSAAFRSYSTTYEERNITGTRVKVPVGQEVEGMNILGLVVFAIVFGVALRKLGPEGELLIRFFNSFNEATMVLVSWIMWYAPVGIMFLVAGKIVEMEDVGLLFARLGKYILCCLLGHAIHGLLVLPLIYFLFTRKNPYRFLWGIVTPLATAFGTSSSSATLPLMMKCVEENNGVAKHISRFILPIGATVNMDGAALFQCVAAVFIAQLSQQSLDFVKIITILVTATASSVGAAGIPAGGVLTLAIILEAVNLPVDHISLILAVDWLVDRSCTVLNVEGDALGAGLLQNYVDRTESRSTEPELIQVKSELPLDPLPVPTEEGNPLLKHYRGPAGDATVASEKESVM
Method: as §1, §2, §3

EAAT1 = biological target: T4, EAAT1 (Homo sapiens, UniProt P43003); assay: Electrophysiology specificity experiment in transfected HEK293 cells, EAAT1; details: apparent Ki, HEK293, internal solution 10 mM glutamate, mean ± SD
T4 construct: expressed in transfected cells; host or cells: HEK293 (ATCC CRL-11268), transient transfection
Method: as §1, §2, §3

EAAT2 = biological target: T5, EAAT2 (Homo sapiens, UniProt P43004); assay: Electrophysiology specificity experiment in transfected HEK293 cells, EAAT2; details: Table 3, dihydroxyproline derivatives; read-out: Ki All DNA: EAAT2
T5 construct: expressed in transfected cells; host or cells: HEK293 (ATCC CRL-11268), transient transfection
Method: as §1, §2, §3

hASCT2 [2] = biological target: T3, hASCT2; assay: Competition experiment with alanine, hASCT2; details: 1 mM ala, first entry of the cell
[3] = apparent Ki in the absence of substrate, HEK293, mean ± SD, read-out: Ki rASCT2
[4] = apparent Ki in the absence of substrate, HEK293, mean ± SD, read-out: Ki hASCT1
[5] = apparent Ki in the absence of substrate, HEK293, mean ± SD, read-out: Ki hASCT2
[6] = Table 3, dihydroxyproline derivatives, read-out: Ki All DNA: rASCT2
[7] = Table 3, dihydroxyproline derivatives, read-out: Ki All DNA: hASCT1
[8] = Table 3, dihydroxyproline derivatives, read-out: Ki All DNA: hASCT2

T4 sequence (P43003 whole entry, species assumed): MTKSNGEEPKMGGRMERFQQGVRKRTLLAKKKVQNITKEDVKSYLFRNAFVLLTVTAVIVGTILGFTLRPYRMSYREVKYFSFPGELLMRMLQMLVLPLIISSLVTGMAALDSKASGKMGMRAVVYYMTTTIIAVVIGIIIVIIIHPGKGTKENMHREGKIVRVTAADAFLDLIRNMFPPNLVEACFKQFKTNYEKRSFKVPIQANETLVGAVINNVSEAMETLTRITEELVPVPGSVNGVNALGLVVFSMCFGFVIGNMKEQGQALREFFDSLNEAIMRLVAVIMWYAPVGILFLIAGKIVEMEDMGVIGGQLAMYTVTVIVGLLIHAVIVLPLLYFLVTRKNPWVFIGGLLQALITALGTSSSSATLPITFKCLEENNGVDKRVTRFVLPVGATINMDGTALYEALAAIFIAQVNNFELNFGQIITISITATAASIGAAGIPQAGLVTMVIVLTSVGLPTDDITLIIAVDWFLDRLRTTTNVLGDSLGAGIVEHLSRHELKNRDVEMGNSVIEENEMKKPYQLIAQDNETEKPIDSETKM
T5 sequence (P43004 whole entry, species assumed): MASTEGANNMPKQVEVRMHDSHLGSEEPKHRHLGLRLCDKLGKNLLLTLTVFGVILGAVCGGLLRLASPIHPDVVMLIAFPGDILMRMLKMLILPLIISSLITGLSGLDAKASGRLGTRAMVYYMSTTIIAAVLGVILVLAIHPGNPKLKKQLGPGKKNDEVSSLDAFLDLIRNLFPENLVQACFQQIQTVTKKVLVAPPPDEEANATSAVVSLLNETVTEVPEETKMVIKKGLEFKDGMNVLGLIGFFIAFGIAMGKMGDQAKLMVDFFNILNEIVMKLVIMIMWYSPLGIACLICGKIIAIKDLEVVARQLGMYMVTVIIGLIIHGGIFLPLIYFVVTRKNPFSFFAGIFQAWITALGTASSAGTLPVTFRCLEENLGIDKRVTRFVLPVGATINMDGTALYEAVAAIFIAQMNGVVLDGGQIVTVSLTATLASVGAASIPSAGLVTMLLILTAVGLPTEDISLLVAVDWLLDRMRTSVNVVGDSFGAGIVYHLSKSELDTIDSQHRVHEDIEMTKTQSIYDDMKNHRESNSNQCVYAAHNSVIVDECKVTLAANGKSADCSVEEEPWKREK

| Ki (rASCT2; [3]) [µM] | Ki (hASCT2 [1]; [5]) [µM] | SMILES | further results |
| --- | --- | --- | --- |
| 12.4 ± 1.8 | 17.3 ± 2.1 | O=C(Nc1ccc(C(=O)N[C@@H]2CN[C@H](C(=O)O)C2)cc1)c1ccccc1 [SN 48] | Ki (hASCT1; [4]): 7.9 ± 0.5 µM |
| 7.46 ± 0.9 | 2.71 ± 0.5 | N[C@H](C(=O)O)[C@@H](CO)OC(=O)c1ccc(-c2ccccc2)cc1 [SN 37] | – |
| 74.7 ± 18.3 | 103 ± 11.2 | O=C(Nc1cccc(CN[C@@H]2CN[C@H](C(=O)O)C2)c1)c1ccccc1 [SN 42] | Ki (hASCT1; [4]): 172 ± 24 µM |
| 2.79 ± 0.7 | 3.01 ± 0.5 | O=C(O[C@@H]1CN[C@H](C(=O)O)C1)c1ccc(-c2ccccn2)cc1 [SN 18] | Ki (EAAT1): 12.4 ± 1 µM; Ki (hASCT1; [4]): 7.01 ± 2.1 µM |
| – | – | O=C(O[C@]1(CO)CN[C@H](C(=O)O)C1)c1ccc(-c2ccc(F)cc2)cc1 [SN74] | Ki (rASCT2; [6]): 2.16 µM; Ki (hASCT1; [7]): 2.45 µM; Ki (hASCT2 [1]; [8]): 3.2 µM |
| 3.51 ± 0.6 | 3.5 ± 0.6 | N[C@@H](CCOC(=O)c1ccc(-c2ccccc2)cc1)C(=O)O [SN 33] | – |
| 5.63 ± 1 | 5.56 ± 4.7 | O=C(O[C@@H]1CN[C@H](C(=O)O)C1)c1cccc(-c2ccccc2)c1 [SN 06] | – |
| 3.63 ± 1.1 | 10 ± 2.8 | N[C@H](C(=O)O)[C@@H](O)COC(=O)c1ccc(-c2ccccc2)cc1 [SN 34] | – |
| – | – | O=C(OC[C@@]1(O)CN[C@H](C(=O)O)C1)c1ccc(C(O)c2ccccc2)cc1 (stereo partly drawn) [SN63] | Ki (rASCT2; [6]): 232 µM; Ki (hASCT1; [7]): 93 µM; Ki (hASCT2 [1]; [8]): 405 µM |
| 3.37 ± 0.4 | 2.94 ± 0.9 | O=C(Nc1ccc(C(=O)O[C@@H]2CN[C@H](C(=O)O)C2)cc1)c1ccc(C(F)(F)F)cc1 [SN 15] | Ki (EAAT1): 1.29 ± 0.2 µM; Ki (hASCT1; [4]): 8.51 ± 3.9 µM |
| 4.83 ± 1 | 0.84 ± 0.2 | N[C@H](C(=O)O)[C@H](O)COC(=O)c1ccc(-c2ccccc2)cc1 [SN 35] | – |
| 1.68 ± 0.6 | 4.69 ± 1.1 | O=C(N[C@@H]1CN[C@H](C(=O)O)C1)c1ccc(-c2ccccc2)cc1 [SN 45] | – |
| 4.58 ± 1.1 | – | O=C(Nc1ccc(C(=O)O[C@@H]2CN[C@H](C(=O)O)C2)cc1)c1ccccc1 [SN 14] | – |
| 22 ± 4.5 | – | N[C@@H](COC(=O)c1ccc(C(=O)c2ccccc2)cc1)C(=O)O [SN 26] | – |
| – | – | O=C(O[C@]1(CO)CN[C@H](C(=O)O)C1)c1ccc(-c2ccccc2)cc1 [SN73] | Ki (EAAT2): 21.4 µM; Ki (rASCT2; [6]): 8.03 µM; Competition Expt % block (given as a decimal): hASCT2 (hASCT2 [2]): full; Ki (hASCT2 [2]; read-out: Competition Expt (h/rASCT2 Ki): hASCT2 Ki): 22.3 µM; Ki (hASCT2 [1]; [8]): 4.25 µM |
| – | – | O=C(OC[C@@]1(O)CN[C@H](C(=O)O)C1)c1ccc(-c2cccc(F)c2)cc1F [SN60] | Ki (rASCT2; [6]): 4.87 µM; Ki (hASCT1; [7]): 8.15 µM; Ki (hASCT2 [1]; [8]): 4.61 µM |
